From patent US20050014676A1, “Methods for delaying or inducing labor” (Boston Biomedical Research Institute, priority 2003, published 2005) come the findings set out here.

Data set [1] has as its system 20-kDa myosin light chain (LC20). Nature of the data set: Measurement of myosin light chain 20 phosphorylation (LC20-P) in permeabilized myometrial strips. More on the design: species or system rat. To be noted: 51 mM KCl stimulated for 4 min myometrial strips. The method, then: Measurements of myosin light chain 20 phosphorylation (LC20-P). Tissue preparation was as described above. After equilibration and stretching, the myometrial strips were permeabilized with 20 μg/ml alpha-toxin (List Biological Lab, Campbell, Calif.) at 34° C. for 30 min. The intracellular Ca2+ concentration was clamped at pCa7.0 for 12 min to prevent an artifactual triggering of contractions in response to the freezing solution. The measurement of LC20-P was performed by glycerol urea gels and western blots as previously published (Je et al., J. Physiol. 537, 567-577 (2001)). Moles phosphate per mole myosin light chain was calculated by dividing the density of the phosphorylated band by the sum of densities of phosphorylated plus the unphosphorylated bands.

For a further data set, the system named is pregnant rats and pups. Nature of the data set: Fetal weight and toxicity to mothers and pups. In kind it is in vivo, rat. To be noted: for Fetal number/rat / Fetal weight: gestation day 20; for Fetal weight: (n) in brackets. The source says:
Animals and treatment groups. All procedures were approved by our institutional animal care and use committee (IACUC). Sprague-Dawley nonpregnant and time-mated, primigravid pregnant rats (day 1=sperm positive, Taconic, Germantown, N.Y.) were used for the experiments. They were housed in a constant-temperature room with a 12-hr light and 12-hr dark cycle. Food and water were available ad libitum. The rats were divided into five groups: nonpregnant (NP), sham, RU486 treated (RU), U0126+RU486 treated (U0+RU) and spontaneous labor (SL). The sequential scheme of the experiment is illustrated in FIG. 1.
Induction of preterm labor: In the RU group, rats (n=6) were treated with RU486 subcutaneously (SC) at dose of 2 mg/kg (concentration of 3 mg/ml in sunflower seed oil) at 10 am on day 19 of pregnancy. Then the rats were closely observed for signs of labor on day 20 of pregnancy.
U0126 treatment: In the U0+RU group, 18-day pregnant rats (n=6) were treated with U0126 at dose of 100 mg/kg, SC, q8h (7 am, 3 pm and 11 pm). U0126 was dissolved at a concentration of 200 mg/ml in DMSO. On day 19 of pregnancy, the rats were administrated RU486 at 10 am for preterm labor induction. The U0126 treatment continued till the onset of labor.
Tissue preparation and force recording.

The subject of data set [2] is Sprague-Dawley pregnant rats. Nature of the data set: RU486-induced preterm labor in rats, onset of labor. To be noted: for average delivery time after RU486 administration: RU486 2 mg/kg SC at 10 am day 19 of pregnancy, U0126 100 mg/kg SC q8h from day 18 until labor, mean±SEM.
Another data set concerns myometrial strips. Kind of data set: In vitro myometrial contractility (isometric force, AUC) of strips from treated rats.
The subject of another data set is ERK2. Nature of the data set: Western blot of myometrial ERK2 phosphorylation (p-ERK2/ERK2). To be noted: myometrium at onset of labor. Further details: species or system rat. The method, then:
(§1) Western blot analysis. The muscle strips were quick-frozen in a dry ice acetone/DTT/TCA slurry at the end of force recording experiment. Samples were homogenized in a buffer containing 20 mM MOPS, 4% SDS, 1% Triton, 10% glycerol, 10 mM DTT, 20 mM β-glycerophosphate, 5.5 μM leupeptin, 5.5 μM pepstatin A, 20 KIU aprotinin, 2 mM Na3VO4, 1 mM NaF, 20 μM 4-(2-aminorthyl) benzenesulphonyl fluoride (AEBSF) and 100 μM ZnCl2. Protein-matched samples were SDS-PAGE electrophoresed, transferred to Immobilon-P membrane (Millipore, Bedford, Mass.), and subjected to immunostaining using the appropriate antibody. Blots were visualized with a SuperSignal West Pico Peroxide Solution (Pierce, Rockford, Ill.). The images were detected with a chemiluminescence screen and quantified with a BioRad Molecular Imager and Multi-Analyst software.

Data set [3] has as its system high molecular weight caldesmon (h-CaD). Kind of data set: Western blot of myometrial h-CaD phosphorylation (Ser789). Further details: species or system rat. To be noted: myometrium at onset of labor. On the procedure:
as §1
On the technique in general: Immunoblotting shows a protein as a band on a membrane.

“Also recorded” adds a separate entry of the source.

On to `[Cl-].[K+]` [KCI], for which, in data set [1], the “LC20-P level, positive control” value turned out to be 39.68±3.33.

For `CC#C[C@]1(O)CC[C@H]2[C@@H]3CCC4=CC(=O)CCC4=C3[C@@H](c3ccc(N(C)C)cc3)C[C@@]21C` [RU486, 11 β-[4-Dimethylamino] phenyl-17β-hydroxy-17-[1-propynyl] estra-4,9-dien-3-one], in the data set on pregnant rats and pups, the Fetal number/rat is reported as 13.4 and the Fetal weight is 2.46 ± 0.068 (16) grams. Moreover, the “average delivery time after RU486 administration” value in data set [2] (n=6) came out at 22.25 ± 0.24 h. Moreover, the average gestational length in data set [2] (RU486-induced preterm labor, Mean±SD, n=6) amounted to 20.35 ± 0.02 days. In the data set with myometrial strips (strips from treated rats at labor, force integrated over 15 min), the “area under force curve (AUC) normalized to tissue dry weight” value was 381.49 ± 44.92 g·s/mg.

With `N#CC(=C(N)Sc1ccccc1N)C(C#N)=C(N)Sc1ccccc1N` [U0126, 1,4-diamino-2,3-dicyano-1,4-bis (2-aminophenylthio) butadiene], the “ERK2 phosphorylation (p-ERK2/ERK2), words” value with ERK2 was “indistinguishable”. The “h-CaD phosphorylation normalized to CaD protein, words” value in data set [3] is given as “indistinguishable”. Besides, the “signs of toxicity to mother or offspring” value in the data set with pregnant rats and pups (U0126 at doses sufficient to delay preterm labor) was “no apparent signs of toxicity; also recorded: no obvious signs of toxicity”. The “effect on fetal weight” value in the data set on pregnant rats and pups (U0126 treatment) was “did not affect fetal weight”. Also, the “daily weight gain or general behavior of pregnant rats, U0+RU vs RU group” value in the data set on pregnant rats and pups (data not shown) is “no difference”. Besides, in the data set on pregnant rats and pups, the Fetal number/rat was found to be 12.3 and the Fetal weight is given as 2.46 ± 0.036 (31) grams. For the same compound, the “average delivery time after RU486 administration” value in data set [2] (n=6) stood at 25.18 ± 0.64 h. Also, the “delay of RU486-induced preterm labor” value in data set [2] (U0126 pretreatment, rats) is “delays RU486-induced preterm labor in a statistically significant manner”. Moreover, the “myometrial AUC once labor commenced, vs RU486 or spontaneous labor” value in the data set with myometrial strips (U0+RU group) is “indistinguishable”.
